Source: patent US10280198B2, “Therapeutic agents for reducing parathyroid hormone levels” (KAI PHARMACEUTICALS, INC., priority 2009, dated 2019)
Where two headings read alike, the source gives them in different places. Square brackets hold non-standard residues; d marks the D form. Peptide text beside a SMILES is read from it.

Key:
[1] = test system: rat peritoneal mast cells; experiment: In vitro histamine induction in rat peritoneal mast cells; assay type: cell-based
Outline: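 Mast cells from peritoneal lavage of Sprague Dawley rats were incubated with compound at 10 μM for 15 min at 37 °C in HBSS + 25 mM HEPES pH 7.4. Supernatant histamine measured by EIA; response expressed as fold change versus pre-incubation levels.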

plasma histamine [2] = experiment: In vivo histamine release after IV bolus in normal Sprague Dawley rats (Example 6, FIG. 3 and 4)
plasma histamine [3] = conditions: rat
Protocol: For the in vivo evaluation of histamine release, compounds were dosed in isoflurane-anesthetized normal rats at 2 mg/kg by IV bolus (administered over less than one minute). Plasma histamine was measured 5 minutes after compound administration (Cayman histamine EIA #589651).

[4] = molecular target: T1, human calcium-sensing receptor (CaSR) (Homo sapiens, UniProt P41180); experiment: In vitro cell assay in HEK-293 expressing the human calcium-sensing receptor (IP1 production); assay type: cell-based; conditions: for EC50: Table 5, IP1 production in HEK293 cells expressing human CaSR, eight concentrations in duplicate, read-out: EC50 in CaSR in vitro assay; for potency to activate the human CaSR in vitro: HEK-293 cell assay
T1 construct: expressed in transfected cells; host or cells: HEK 293T cells, transiently transfected (lipofectamine 2000); in some cases HEK293 cells stably transfected
T1 sequence (P41180 20-1078): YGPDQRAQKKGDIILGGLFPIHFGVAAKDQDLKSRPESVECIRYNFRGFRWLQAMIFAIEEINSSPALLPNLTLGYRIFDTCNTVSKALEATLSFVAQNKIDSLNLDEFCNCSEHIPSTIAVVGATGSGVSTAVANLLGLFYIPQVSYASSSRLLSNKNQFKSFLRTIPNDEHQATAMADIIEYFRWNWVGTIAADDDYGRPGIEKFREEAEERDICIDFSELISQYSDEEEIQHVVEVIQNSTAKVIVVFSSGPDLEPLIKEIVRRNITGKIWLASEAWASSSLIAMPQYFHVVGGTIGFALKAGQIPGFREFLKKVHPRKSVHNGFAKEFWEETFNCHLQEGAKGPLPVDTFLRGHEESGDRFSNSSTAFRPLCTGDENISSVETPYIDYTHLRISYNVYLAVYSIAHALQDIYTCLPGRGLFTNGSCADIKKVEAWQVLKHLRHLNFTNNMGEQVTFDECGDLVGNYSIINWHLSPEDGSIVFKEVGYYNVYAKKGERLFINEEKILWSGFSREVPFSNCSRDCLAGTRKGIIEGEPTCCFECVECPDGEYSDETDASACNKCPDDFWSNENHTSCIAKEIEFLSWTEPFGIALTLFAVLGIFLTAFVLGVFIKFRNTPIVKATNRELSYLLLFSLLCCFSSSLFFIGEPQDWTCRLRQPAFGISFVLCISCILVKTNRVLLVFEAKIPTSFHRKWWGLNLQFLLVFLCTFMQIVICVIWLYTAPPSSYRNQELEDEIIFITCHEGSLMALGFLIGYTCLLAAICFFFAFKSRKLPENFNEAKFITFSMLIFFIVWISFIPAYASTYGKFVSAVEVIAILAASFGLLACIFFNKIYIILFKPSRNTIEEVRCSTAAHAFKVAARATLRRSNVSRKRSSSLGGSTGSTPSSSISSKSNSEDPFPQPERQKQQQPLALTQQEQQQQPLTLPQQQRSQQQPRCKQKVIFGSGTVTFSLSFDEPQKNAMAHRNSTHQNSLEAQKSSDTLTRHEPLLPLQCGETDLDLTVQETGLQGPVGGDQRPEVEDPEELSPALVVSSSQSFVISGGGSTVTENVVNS
Protocol: The activity of a variety of peptides and conjugates was tested against the human CaSR. These studies were conducted by measuring IP1 production in HEK293 cells that express the human CaSR. Each peptide was tested in eight different concentrations, in duplicates, to establish a dose response curve. Curve fitting was performed using GraphPad Prism. In Table 5, and throughout the specification, residues provided in capital letters are L-amino acids, while lower case letters indicate D-amino acids. “Ac” indicates an acetyl capping group, “NH2” indicates an amide capping group, “Ac-bAla” is an acetylated beta-alanine, “GSH” indicates reduced glutathione, “GS” indicates oxidized glutathione, “PEG” refers to polyethylene glycol, “PEG2” and “PEGS” refer to polyethylene glycol moieties of 2 kDa and 5 kDa, respectively, and “Mpa” refers to mercaptopropionic acid.
The day after, these cells were transfected with human CaSR receptor using lipofectamine 2000 transfection reagent 24 hrs post transfection, cells were seeded in 384 well plates at 8,000 cells/well. […] In some cases, EC50 values were determined by measuring inositol monophosphate production in the HEK293 cells, stably transfected with the human calcium-sensing receptor (see Table 1).
Cells were incubated with compounds at various concentrations (1 mM or 300 μM as the highest and further ½ log serial dilutions) at 37° C. for 1.5 hrs before reaction termination. […] In brief, incubation with the compound was terminated by sequentially adding D2 labeled-IP1 and cryptate-labeled anti-IP1 in lysis buffer and further incubating at room temperature for 60 minutes. […] Non-transfected 293 cells were used as negative control.
IP1 concentrations were calculated from standard curves (generated with Graph Pad Prism ver. 4) using known concentrations of IP1 standards.

plasma PTH [5] = experiment: 1K1C rat model of acute renal insufficiency, plasma PTH after dosing; assay type: in vivo; conditions: 1K1C rats, 3 mg/kg 30-minute IV infusion, FIG. 1
Excerpt: A rat model of acute renal insufficiency (also referred to as the 1K1C model) was developed to simulate the pathology of SHPT associated with end stage renal disease. […] The development of this model allowed for the further characterization of described compounds in the context of a subject with renal dysfunction and elevated PTH. Typical baseline PTH levels in this model averaged ˜450 pg/mL.
The ensuing ischemia/reperfusion (I/R) damage to the remaining kidney results in significant necrosis and renal failure. Serum creatinine levels were elevated for over 24-48 hours following I/R insult (data not shown). […] By 48 hours post-I/R, plasma PTH levels were elevated to ˜450 pg/mL (˜5 fold increase) and in some instances reach as high as ˜1200 pg/mL. This reproducible increase in serum creatinine and PTH provided a robust model that mimics the physiology seen ESRD patients.
The protocol used in this study is as follows. Male Sprague Dawley rats were purchased from Charles River Laboratories (Hollister, Calif.; requested purchase weight 250-275 g). […] Animals were maintained in a temperature-controlled environment with a constant 12 hours light/12 hours dark cycle and free access to food and water at all times. All experimental procedures with animals were performed according to IACUC guidelines.
General anesthesia was induced and maintained by intraperitoneal (IP) injection of sodium pentobarbital (5.2%, 0.4 mL/rat). For animals that received 45 minutes of renal ischemia an additional IP injection of sodium pentobarbital (5.2%, 0.1 mL/rat) was given to maintain the anesthetic plane. Blood sampling for PTH measurements following administration of compounds in normal rats was done under continuous isoflurane anesthesia.
For model development studies, the left femoral vein was cannulated with a PE-10 tube for blood drawing. Both kidneys were exposed via a laparotomy. A right nephrectomy was performed after the right renal pedicle and ureter were ligated with double 2-0 silk sutures. After confirmation of non-bleeding in the right pedicle, the left renal artery was carefully dissected and clamped with a micro vascular clip to induce left renal global ischemia. Renal ischemia was confirmed by observation of a global white-grey color change (blanching). The abdominal incision was temporarily covered with gauze to help maintain the temperature of the abdominal organs. After 45 minutes, the designated period of ischemia, the clip was removed and left renal artery flow was considered restored upon observation of a global restoration of red color. The abdominal incision was closed in layers with 2-0 silk sutures. The animal was then recovered from anesthesia. Physiological parameters including body temperature (36-37.5° C.) and body weight were measured throughout the procedure. Body temperature was monitored and maintained using a heat pad rectal probe feedback system.
Approximately 48 hours after the 1K1C surgery (I/R injury), animals were dosed with various compounds to measure effects on plasma PTH and calcium. In most cases, test articles were administered by IV infusion (infusion time 5, 10 or 30 minutes) although in some studies compounds were administered by IV bolus or subcutaneous (SC) bolus injection. For drug administration and blood draws, animals were anesthetized with isoflurane.

plasma PTH [6] = experiment: In vivo PTH lowering after IV bolus in isoflurane-anesthetized normal Sprague Dawley rats; design: species or system rat; conditions: Table 2; for % PTH reduction of baseline at 1 hour post IV administration of 0.5 mg/kg compound: isoflurane-anesthetized normal rats, 0.5 mg/kg IV; for 0.5 mg/kg IV bolus % PTH AUC of saline control: normal rats, AUC 1-4 h
Outline: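 Peptides were given as a 0.5 mg/kg IV bolus to normal Sprague Dawley rats kept under isoflurane throughout, with saline bolus controls.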

plasma histamine [7] = conditions: rat, in vivo, iv

Row | Compound | Histamine in vitro Fold change of non-treated at 10 uM [1] | Histamine response in vivo Fold change from pre-dose levels 5′ post injection 2 mg/kg IV bolus (plasma histamine [3]) | EC50 [4] | % PTH reduction of baseline at 1 hour post IV administration of 0.5 mg/kg compound (plasma PTH [6]) | 0.5 mg/kg IV bolus % PTH AUC of saline control (plasma PTH [6]) | other results
1 | CC(=O)N[C@H](CSSC[C@H](N)C(=O)O)C(=O)N[C@H](C)C(=O)N[C@H](CCCNC(=N)N)C(=O)N[C@H](CCCNC(=N)N)C(=O)N[C@H](CCCNC(=N)N)C(=O)N[C@H](C)C(=O)N[C@H](CCCNC(=N)N)C(N)=O [SEQ ID NO: 3, Ac-c(C)arrrar-NH2] | 0.6 fold | 0.9 fold | – | – | – | fold increase in histamine level relative to pre-dose (plasma histamine [2]; 3 mg/kg IV bolus, isoflurane-anesthetized Sprague Dawley rats, FIG. 4): no apparent histamine response
2 | CC(=O)N[C@H](CS)C(=O)N[C@H](CCCNC(=N)N)C(=O)N[C@H](CCCNC(=N)N)C(=O)N[C@H](CCCNC(=N)N)C(=O)N[C@H](CCCNC(=N)N)C(=O)N[C@H](CCCNC(=N)N)C(N)=O [SEQ ID NO: 5, Ac-crrrrr-NH2] (Ac-[dC][dR][dR][dR][dR][dR]-NH2) | – | – | 2.5 µM | – | – | mean PTH reduction at the 24 hour time point (plasma PTH [5]): 60%
3 | CC(=O)N[C@H](CS)C(=O)N[C@H](C)C(=O)N[C@H](CCCNC(=N)N)C(=O)N[C@H](C)C(=O)N[C@H](CCCNC(=N)N)C(=O)N[C@H](CCCNC(=N)N)C(=O)N[C@H](CCCNC(=N)N)C(N)=O [SEQ ID NO: 15, Ac-cararrr-NH2] (Ac-[dC][dA][dR][dA][dR][dR][dR]-NH2) | 2.5 fold | 1.0 fold | 13 µM | 75% | 116% | histamine response after IV bolus (plasma histamine [7]): lack of a histamine response; potency to activate the human CaSR in vitro [4]: significantly reduced potency in vitro in activating the CaSR
4 | CC(=O)N[C@H](CS)C(=O)N[C@H](C)C(=O)N[C@H](CCCNC(=N)N)C(=O)N[C@H](CCCNC(=N)N)C(=O)N[C@H](CCCNC(=N)N)C(=O)N[C@H](CCCNC(=N)N)C(=O)N[C@H](C)C(N)=O [SEQ ID NO: 19, Ac-carrrra-NH2] (Ac-[dC][dA][dR][dR][dR][dR][dA]-NH2) | 1.3 fold | 0.9 fold | – | 29% | 72% | –
5 | CC(=O)N[C@H](CS)C(=O)N[C@H](CCCNC(=N)N)C(=O)N[C@H](CCCNC(=N)N)C(=O)N[C@H](CCCNC(=N)N)C(=O)N[C@H](CCCNC(=N)N)C(=O)N[C@H](CCCNC(=N)N)C(=O)N[C@H](CCCNC(=N)N)C(=O)N[C@H](CCCNC(=N)N)C(=O)N[C@H](CCCNC(=N)N)C(N)=O [SEQ ID NO: 41, Ac-crrrrrrrr-NH2] | – | – | 0.3 µM | – | – | histamine fold over baseline (plasma histamine [2]; equimolar IV bolus 2.1 μmol/kg, normal rats, 5 minutes after dosing, FIG. 3): 6-9 fold; histamine response after IV bolus (plasma histamine [2]; rats, IV bolus): largest induction of histamine; potency to activate the human CaSR in vitro [4]: more potent at activating the CaSR

Continued, in another order:

Row | Histamine in vitro Fold change of non-treated at 10 uM [1] | Histamine response in vivo Fold change from pre-dose levels 5′ post injection 2 mg/kg IV bolus (plasma histamine [3]) | EC50 [4] | Compound | % PTH reduction of baseline at 1 hour post IV administration of 0.5 mg/kg compound (plasma PTH [6]) | 0.5 mg/kg IV bolus % PTH AUC of saline control (plasma PTH [6]) | other results
6 | 1.1 fold | 1.0 fold | – | CC(=O)N[C@H](CS)C(=O)N[C@H](CCCNC(=N)N)C(=O)N[C@H](C)C(=O)N[C@H](CCCNC(=N)N)C(=O)N[C@H](CCCNC(=N)N)C(=O)N[C@H](CCCNC(=N)N)C(=O)N[C@H](C)C(N)=O [SEQ ID NO: 20, Ac-crarrra-NH2] (Ac-[dC][dR][dA][dR][dR][dR][dA]-NH2) | 45% | 69% | –
7 | 1.5 fold | 0.8 fold | – | CC(=O)N[C@H](CS)C(=O)N[C@H](CCCNC(=N)N)C(=O)N[C@H](C)C(=O)N[C@H](CCCNC(=N)N)C(=O)N[C@H](CCCNC(=N)N)C(=O)N[C@H](C)C(=O)N[C@H](CCCNC(=N)N)C(N)=O [SEQ ID NO: 23, Ac-crarrar-NH2] (Ac-[dC][dR][dA][dR][dR][dA][dR]-NH2) | 0% | 43% | –
8 | – | 0.9 fold | – | CC(=O)N[C@H](CS)C(=O)N[C@H](CCCNC(=N)N)C(=O)N[C@H](CCCNC(=N)N)C(=O)N[C@H](C)C(=O)N[C@H](CCCNC(=N)N)C(=O)N[C@H](C)C(=O)N[C@H](CCCNC(=N)N)C(N)=O [SEQ ID NO: 25, Ac-crrarar-NH2] (Ac-[dC][dR][dR][dA][dR][dA][dR]-NH2) | – | – | –
9 | 0.7 fold | 0.9 fold | – | Ac-c(C)rrarar-NH2 [SEQ ID NO: 28] | 0% | 16% | –
